PubChem BioAssay (NCI)
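Cells were grown in 96-well plates and exposed to each compound for 48 hours at five concentrations; endpoints were interpolated linearly between bracketing concentrations, or set to the highest concentration if not reached. At the GI50, growth is halved. TGI denotes the concentration required for complete inhibition of growth.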

Test system: NCI-H23 lung
Assay: growth of human tumour cells (NCI), 48 h

Row | SMILES | TGI [µM]
1 | Cc1ccc(-n2cc(-c3ccc(Cl)cc3)c3c2N=CN2NC(c4ccco4)=NC32)cc1 (stereo not drawn) | 72.4
2 | COc1cc(/C=C/c2cc(=O)cc(/C=C/c3ccc(O)c(OC)c3)o2)ccc1O | > 100
3 | c1ccc(-c2ccc(N=NN3CCCC3)cc2)cc1 | > 100
4 | COn1cc(CO)c2ccccc21 | > 100
5 | NNC(=O)c1cccc2c1Oc1ccccc1S2 | > 100
6 | NC(=S)N=Nc1c(O)cc(Nc2ccc(Cl)cc2Cl)c2ccccc12 | 97.7
7 | Cc1ccc(C(=O)c2[nH]c(Nc3cc(C)ccn3)c(C(=S)Nc3ccccc3)c2N)cc1 | > 100
8 | NS(=O)(=O)c1nnc(NSc2ccc([N+](=O)[O-])cc2)s1 | > 100
9 | CC1=NC(C)(C)N(O)C1(C)C | > 100
10 | Cc1cc(C)nc(NS(=O)(=O)c2ccc(Nc3c4ccccc4nc4c(C(=O)NCCO)cccc34)cc2)n1 | > 100
11 | COC1OC2COC(C)(C)OC2C2OC(C)(C)OC12 (stereo not drawn) | > 100
12 | O=C(NCCCNCCCCNCCCNC(=O)C(F)(F)F)C(F)(F)F | > 100
13 | COC(=O)c1sc2ncc3c(c2c1N)CC(C)CC3 (stereo not drawn) | > 100
14 | CCOC(=O)c1[nH]c2nc(SC)nc(NC)c2c1N | > 100
15 | CC1=CCC[C@H]2[C@](C)(CC3=CC(=O)C4SCCSC4C3=O)[C@@H](C)CC[C@]12C (stereo partly drawn) | 31.9

Test system: MOLT-4 leukemia
Assay: growth of human tumour cells (NCI), 48 h

Row | SMILES | TGI [µM] | GI50 [µM]
16 | CC(O)(C(=O)N(O)c1ccc(Cl)cc1)c1ccc(Cl)cc1 (stereo not drawn) | 42.9 | –
17 | CCOP(=O)(OCC)c1cc(-c2ccccc2)ccc1N | > 100 | –
18 | CC1(C)[C@@H]2C[C@H]1c1cnc(-c3ccccn3)cc1[C@H]2C(O)[C@@H]1c2cc(-c3ccccn3)ncc2[C@H]2C[C@@H]1C2(C)C (stereo partly drawn) | 0.505 | –
19 | CC1(C)OC(CCO)CN1C(=O)OCc1ccccc1 (stereo not drawn) | > 100 | –
20 | COc1cc2c(cc1OCCCOc1cc3c(cc1OC)C(=O)N1CCC[C@H]1CN3)N=C[C@@H]1CCCN1C2=O | 0.148 | –
21 | COc1ccc(N2C(=O)C3c4[nH]c5ccccc5c4C4C(C)CCCC4C3C2=O)cc1 (stereo not drawn) | > 100 | –
22 | CCOC(=O)C1=C(C)NC(=O)N([N+](=O)[O-])C1c1ccccc1C(F)(F)F (stereo not drawn) | > 100 | –
23 | O=c1c(Cc2ccccc2)c(-c2ccccc2)[nH]n1C1=NCCN1 | > 100 | –
24 | Brc1ccc2c(c1)-c1nc3c(cc1CC2)CCc1ccc(Br)cc1-3 | > 100 | –
25 | CCOC(=O)Cc1nn2c(=O)cc(C)nc2s1 | > 100 | –
26 | COP(=O)(CC(=O)C1OC(OCc2ccccc2)C(OCc2ccccc2)C(OCc2ccccc2)C1OCc1ccccc1)OC (stereo not drawn) | > 100 | –
27 | OC(c1ccco1)C(F)(F)c1nc2ccccc2o1 (stereo not drawn) | > 100 | –
28 | CN1c2ccccc2C(=O)NC12CCN(CC1COc3ccccc3O1)CC2 (stereo not drawn) | 77.1 | –
29 | CCOC1NC(=O)c2ccccc21 (stereo not drawn) | > 100 | –
30 | CCN(C(=O)N[C@H](C(=O)N[C@@H](C)C(=O)OC)C(C)C)c1ccccc1 | > 100 | –
31 | Cc1cn(C2CC(OC(c3ccccc3)(c3ccccc3)c3ccccc3)C(COC(c3ccccc3)(c3ccccc3)c3ccccc3)O2)c(=O)[nH]c1=O (stereo not drawn) | > 100 | –
32 | CCOC(=O)c1ccc(C(=O)/C(C(=O)OC(C)(C)C)=C2\CCCN2C)n1C | > 100 | –
33 | Cc1cc2c(cc1Cl)SC(NNc1cnc3ccccc3n1)=NS2(=O)=O | 63.5 | –
34 | O=C1c2c(c3c4ccc(Br)cc4oc3c3[nH]c4ccccc4c23)C(=O)N1O | > 100 | 0.308
35 | O=[N+]([O-])c1ccc2nc3c(nc2c1)-c1c2ccccc2cc2cccc-3c12 | 31.7 | –
36 | O=CN(O)CC(=O)O | > 100 | –

Row | SMILES | TGI [µM] | GI50 [µM]
37 | COc1ccc(CN2C(=O)C(=O)N(C)C2=O)c2ccccc12 | > 10 | –
38 | C(=N/Nc1ccc(-c2nc3ccccc3[nH]2)cc1)/c1c(-c2ccccc2)[nH]c2ccccc12 | > 100 | –
39 | OCC1OC(O[C@H]2CN3[C@H](O)[C@@H](O)[C@H](O)[C@H]3C2O)C(O)C(O)C1O (stereo partly drawn) | > 100 | –
40 | CC1OC(n2cc(F)c(=O)[nH]c2=O)C(O[Si](C)(C)C(C)(C)C)C1O[Si](C)(C)C(C)(C)C (stereo not drawn) | > 100 | –
41 | O=S1(=O)c2ccccc2NC(=S)N1c1ccccc1 | > 100 | –
42 | COC(=O)C(CCSC)NC(=O)CSc1nnc(COc2ccc(Cl)cc2)n1-c1ccccc1 (stereo not drawn) | 43 | –
43 | CCOC(=O)c1c(NC(=S)Nc2ccc(C)cc2)sc2c1CCN(C)C2 | > 100 | –
44 | COc1cc(/C=C/c2cc(=O)cc(/C=C/c3ccc(O)c(OC)c3)o2)ccc1O | > 100 | –
45 | c1ccc(-c2ccc(N=NN3CCCC3)cc2)cc1 | > 100 | –
46 | COn1cc(CO)c2ccccc21 | > 100 | –
47 | NNC(=O)c1cccc2c1Oc1ccccc1S2 | > 100 | –
48 | NC(=S)N=Nc1c(O)cc(Nc2ccc(Cl)cc2Cl)c2ccccc12 | > 100 | –
49 | Cc1ccc(C(=O)c2[nH]c(Nc3cc(C)ccn3)c(C(=S)Nc3ccccc3)c2N)cc1 | > 100 | –
50 | NS(=O)(=O)c1nnc(NSc2ccc([N+](=O)[O-])cc2)s1 | > 100 | –
51 | CC1=NC(C)(C)N(O)C1(C)C | > 100 | –
52 | Cc1cc(C)nc(NS(=O)(=O)c2ccc(Nc3c4ccccc4nc4c(C(=O)NCCO)cccc34)cc2)n1 | > 100 | –
53 | COC1OC2COC(C)(C)OC2C2OC(C)(C)OC12 (stereo not drawn) | 87.9 | –
54 | COC(=O)c1sc2ncc3c(c2c1N)CC(C)CC3 (stereo not drawn) | > 100 | –
55 | CCOC(=O)c1[nH]c2nc(SC)nc(NC)c2c1N | > 100 | –
56 | CC1=CCC[C@H]2[C@](C)(CC3=CC(=O)C4SCCSC4C3=O)[C@@H](C)CC[C@]12C (stereo partly drawn) | 80.7 | –

Test system: HT29 colon
Assay: growth of human tumour cells (NCI), 48 h

Row | SMILES | TGI [µM]
57 | CC(O)(C(=O)N(O)c1ccc(Cl)cc1)c1ccc(Cl)cc1 (stereo not drawn) | > 100
58 | CCOP(=O)(OCC)c1cc(-c2ccccc2)ccc1N | > 100
59 | CC1(C)[C@@H]2C[C@H]1c1cnc(-c3ccccn3)cc1[C@H]2C(O)[C@@H]1c2cc(-c3ccccn3)ncc2[C@H]2C[C@@H]1C2(C)C (stereo partly drawn) | 3.57
60 | COc1cc2c(cc1OCCCOc1cc3c(cc1OC)C(=O)N1CCC[C@H]1CN3)N=C[C@@H]1CCCN1C2=O | 13.7
61 | COc1ccc(N2C(=O)C3c4[nH]c5ccccc5c4C4C(C)CCCC4C3C2=O)cc1 (stereo not drawn) | > 100
62 | CCOC(=O)C1=C(C)NC(=O)N([N+](=O)[O-])C1c1ccccc1C(F)(F)F (stereo not drawn) | > 100
63 | O=c1c(Cc2ccccc2)c(-c2ccccc2)[nH]n1C1=NCCN1 | 57
64 | CCOC(=O)Cc1nn2c(=O)cc(C)nc2s1 | > 100
65 | COP(=O)(CC(=O)C1OC(OCc2ccccc2)C(OCc2ccccc2)C(OCc2ccccc2)C1OCc1ccccc1)OC (stereo not drawn) | 24.2
66 | OC(c1ccco1)C(F)(F)c1nc2ccccc2o1 (stereo not drawn) | > 100
67 | CN1c2ccccc2C(=O)NC12CCN(CC1COc3ccccc3O1)CC2 (stereo not drawn) | > 100
